# From ChEMBL document CHEMBL1201862, “PubChem BioAssay data set” (2004)
# The source made the active and inactive calls.
# Assays:
# [1] = cells; type: functional, cell-based
# [2] = cells; type: functional, cell-based; remark: listed apart in the source
# [3] = test system: H9c2; assay: cells; type: functional, cell-based; settings: Rattus norvegicus, H9c2, Myocardium;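 note: confirmatory concentration-response retest of ultra-high-throughput screening hits for modulation of myocardial damage; cell death induced by hydrogen peroxide oxidative stress; compound pretreatment for 60 min then peroxide exposure for 2 h; potency is for protecting the cells against peroxide damage rather than for killing them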
# [4] = Trypanosoma cruzi growth suppression in host cells – NIH3T3 host cells, beta-gal luminescence, confirmation (AID 2044); type: functional, cell-based;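 note: intracellular parasites grown in NIH/3T3 mouse fibroblasts as host cells; luminescent beta-galactosidase reporter signal from transgenic T. cruzi replicating inside host cells; inhibitors lower the luminescence signal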
# [5] = target: FAD-linked sulfhydryl oxidase ALR (Homo sapiens, UniProt P55789); assay: ALR-catalysed DTT oxidation blockers – biochemical, H2O2 detection, luminescence, cherry-pick, dose response (AID 493248)
# Sequence of FAD-linked sulfhydryl oxidase ALR (P55789 whole entry): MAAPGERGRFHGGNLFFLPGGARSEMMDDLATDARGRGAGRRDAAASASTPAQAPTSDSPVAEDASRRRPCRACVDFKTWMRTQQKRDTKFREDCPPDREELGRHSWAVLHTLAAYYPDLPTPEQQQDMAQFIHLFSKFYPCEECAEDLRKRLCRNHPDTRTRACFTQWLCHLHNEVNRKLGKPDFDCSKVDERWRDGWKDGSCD
# [6] = NIH3T3 cell viability loss – ATP luminescence, mouse fibroblasts, counter-screen, dose response (AID 2010); type: functional, cell-based;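 note: cells exposed to compound for about 90 hours before reading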
# [7] = target: Heat shock protein HSP 90-alpha (Homo sapiens, UniProt P07900); type: functional, organism-based
# [8] = NIH-3T3 fibroblast cytotoxicity, dose response, cytotoxicity control, cell-based, fluorescence, Alamar Blue, secondary assay (AID 2327); type: functional;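 note: NIH-3T3 mouse fibroblasts cultured with fluconazole at 8 µg/mL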
# [9] = fluconazole-exposed Candida albicans growth modulators – fluorescence, retest, confirmation (AID 2467); type: functional, cell-based
# [10] = target: T1, Streptokinase A (Streptococcus pyogenes serotype M1, UniProt P10520); assay: viability-normalized secreted streptokinase activity reduction – plasminogen activation absorbance, OD405, dose response (AID 1914); type: functional, Streptococcus pyogenes M1 GAS;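 note: secreted streptokinase activity via plasminogen activation per viability signal from cell pellet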
# T1 sequence (P10520 whole entry): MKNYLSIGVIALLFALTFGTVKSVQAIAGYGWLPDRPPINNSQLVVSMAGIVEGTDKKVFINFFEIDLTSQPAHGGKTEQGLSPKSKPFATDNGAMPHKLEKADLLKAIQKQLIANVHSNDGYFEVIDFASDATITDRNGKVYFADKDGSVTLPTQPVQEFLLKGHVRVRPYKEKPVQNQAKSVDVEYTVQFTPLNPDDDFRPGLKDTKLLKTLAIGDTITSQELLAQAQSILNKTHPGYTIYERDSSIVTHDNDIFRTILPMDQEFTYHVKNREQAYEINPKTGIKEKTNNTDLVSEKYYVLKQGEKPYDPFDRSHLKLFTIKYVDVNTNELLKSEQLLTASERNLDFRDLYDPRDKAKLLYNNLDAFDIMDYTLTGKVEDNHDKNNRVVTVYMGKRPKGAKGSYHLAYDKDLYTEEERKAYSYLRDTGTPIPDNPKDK
# [11] = test system: Streptococcus sp. 'group A'; assay: Streptococcus pyogenes SK(-)GAS viability under kanamycin – luminescence, BacTiterGlo, confirmation, counter-screen for streptokinase expression inhibitor project, dose response (AID 1900); type: functional, organism-based
# [12] = test system: Streptococcus; assay: GAS UMAA2166 growth inhibition – luminescence, BacTiterGlo, counter-screen for streptokinase expression inhibitor project, dose response (AID 1915); type: functional, organism-based;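 note: potency for reduction of bacterial viability or growth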
# [13] = luciferase reporter signal suppression in cells – H4 neuroglioma cells, luminescence, dose response (AID 1990); type: functional, cell-based
# [14] = Luminescence Cell-Based Dose Response HTS to Identify Inhibitors of 5'UTR Stem-Loop Driven Prion Protein mRNA Translation in H4 Neuroglioblastoma Cells. [Related pubchem assays: 1827 (Project Summary), 1813 (Primary HTS)]; type: functional
# [15] = alpha-synuclein stem-loop luciferase translation blockers – H4 neuroglioma cells, luminescence, confirmation (AID 1988); type: functional, cell-based
# [16] = target: T2, Ubiquitin-conjugating enzyme E2 N (Homo sapiens, UniProt P61088); type: functional;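 note: Dose-response confirmation in a TR-FRET assay detecting UBC13-driven polyubiquitin chain formation, inhibition measured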
# T2 sequence (P61088 whole entry): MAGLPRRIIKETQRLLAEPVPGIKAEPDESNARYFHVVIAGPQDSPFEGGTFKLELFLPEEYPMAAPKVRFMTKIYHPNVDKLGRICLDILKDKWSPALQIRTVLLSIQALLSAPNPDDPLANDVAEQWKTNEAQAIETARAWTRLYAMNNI
# [17] = Vero E6 cell cytotoxicity, dose response, cytotoxicity control for non-replicating M. tuberculosis project, secondary assay (AID 492998); type: functional, VeroE6; settings: Vero C1008
# [18] = THP-1 cell cytotoxicity, dose response, cytotoxicity control for non-replicating M. tuberculosis project (AID 489025); type: functional
# [19] = cells; type: functional
# [20] = target: T3, Heat shock factor protein 1 (Mus musculus, UniProt P38532); assay: enhancement of HSF1-driven luciferase signal – cell-based, NIH3T3, luminescence, dose retest, confirmation (AID 435004); type: functional;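 note: stress induced by proteasome inhibitor MG132 added 30 min after compound; luciferase reporter driven by HSF1 response element in NIH3T3 cells; actives raise luminescence as potentiators of the MG132 stress response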
# T3 sequence (P38532 whole entry): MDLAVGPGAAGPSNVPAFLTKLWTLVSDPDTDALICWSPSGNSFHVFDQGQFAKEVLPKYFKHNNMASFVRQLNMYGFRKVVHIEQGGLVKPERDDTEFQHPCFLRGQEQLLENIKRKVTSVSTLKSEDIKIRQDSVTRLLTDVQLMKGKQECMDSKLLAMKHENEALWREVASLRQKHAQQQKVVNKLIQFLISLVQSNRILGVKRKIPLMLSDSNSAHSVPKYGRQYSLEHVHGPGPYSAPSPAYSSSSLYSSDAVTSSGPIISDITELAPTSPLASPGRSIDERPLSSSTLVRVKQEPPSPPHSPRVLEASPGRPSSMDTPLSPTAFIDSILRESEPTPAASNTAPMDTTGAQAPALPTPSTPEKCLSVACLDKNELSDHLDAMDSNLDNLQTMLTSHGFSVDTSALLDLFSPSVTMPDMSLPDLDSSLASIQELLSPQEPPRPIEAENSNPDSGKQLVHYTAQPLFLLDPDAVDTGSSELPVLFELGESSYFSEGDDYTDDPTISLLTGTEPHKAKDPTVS
# [21] = target: T4, Corticotropin-releasing factor receptor 2/Corticotropin-releasing factor-binding protein (Homo sapiens, UniProt P24387+Q13324); assay: Dose Response confirmation of uHTS hits for small molecule antagonists of the CRF-binding protein and CRF-R2 receptor complex.; type: functional; settings: read-out: IC50_Mean
# T4 sequence (Q13324 whole entry): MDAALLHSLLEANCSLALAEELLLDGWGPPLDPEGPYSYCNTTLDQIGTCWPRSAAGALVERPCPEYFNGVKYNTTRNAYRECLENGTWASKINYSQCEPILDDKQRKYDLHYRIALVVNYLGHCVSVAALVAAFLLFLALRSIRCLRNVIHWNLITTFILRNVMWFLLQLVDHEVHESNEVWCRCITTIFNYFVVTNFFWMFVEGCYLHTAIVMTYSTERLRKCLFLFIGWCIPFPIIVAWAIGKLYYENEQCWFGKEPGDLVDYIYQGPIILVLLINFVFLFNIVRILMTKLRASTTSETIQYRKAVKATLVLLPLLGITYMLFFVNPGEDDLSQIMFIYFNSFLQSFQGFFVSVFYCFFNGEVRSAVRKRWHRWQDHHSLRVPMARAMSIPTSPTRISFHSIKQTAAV
# T4 sequence (P24387 whole entry): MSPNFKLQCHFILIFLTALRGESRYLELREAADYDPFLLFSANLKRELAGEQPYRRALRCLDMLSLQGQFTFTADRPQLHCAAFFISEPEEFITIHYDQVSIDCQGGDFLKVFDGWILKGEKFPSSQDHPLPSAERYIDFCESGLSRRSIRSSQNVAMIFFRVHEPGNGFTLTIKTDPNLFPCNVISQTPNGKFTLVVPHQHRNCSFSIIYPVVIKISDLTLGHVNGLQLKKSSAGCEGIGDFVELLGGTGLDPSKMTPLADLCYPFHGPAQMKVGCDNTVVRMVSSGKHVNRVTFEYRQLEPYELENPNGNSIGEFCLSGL
# [22] = target: T4, Corticotropin-releasing factor receptor 2/Corticotropin-releasing factor-binding protein; assay: activators of CRF receptor 2 with binding protein – uHTS hits, confirmation (AID 602473); type: functional; settings: read-out: EC50_Mean
structure (smiles),measurement,setting,value
C=C(C)Cn1c(CCNC(=O)C(C)C)nc2ccccc21,EC50,[1],> 350 µM (not active)
same,EC50,[2],> 350 µM (not active)
O=C(O)c1nn(CCOc2ccccc2F)c(=O)c2ccccc12,IC50,[3],> 79 µM (inactive)
O=C(CCN1CCN(c2ccccc2)CC1)N/N=C/c1ccccc1O,EC50,[1],91.8 µM (active)
same,EC50,[2],> 350 µM (not active)
O=C(NCCCN1CCOCC1)c1cc(-c2cccs2)on1,EC50,[1],77 µM (active)
same,EC50,[2],> 350 µM (not active)
Cc1ccc(NC2CCCN(C(=O)CCc3ccncc3)C2)cc1C (stereo unspecified),EC50,[4],1.15 µM (active)
same,AC50,[5],2.7 µM (active)
same,EC50,[6],> 60 µM (not active)
CCn1c(S)nnc1CCn1c2ccccc2c2ccccc21,AC50,[5],> 100 µM (inactive)
CCOC(=O)c1cc2c(ccn2C)n1CC(=O)N1CCN(c2ccccc2)CC1,EC50,[1],> 350 µM (not active)
same,EC50,[2],> 350 µM (not active)
O=C(NC(O)C(=O)c1cccs1)c1cccnc1 (stereo unspecified),IC50,[3],> 79 µM (inactive)
C/C(CC(=O)Nc1cc(C)ccn1)=N\NC(=O)c1cccc(C)c1O,AC50,[7],49.5 µM (active)
same,EC50,[8],> 160 µM (inactive)
same,EC50,[9],> 38 µM (not active)
O=C(COc1ccc([N+](=O)[O-])cc1)Nc1nc(-c2ccccn2)cs1,EC50,[10],> 150 µM (not active)
same,EC50,[11],5.56 µM (active)
same,EC50,[12],13.8 µM (active)
same,EC50,[4],1.79 µM (active)
same,EC50,[13],> 120 µM (not active)
same,EC50,[14],11.8 µM (active)
same,EC50,[15],> 120 µM (not active)
same,IC50,[3],11.8 µM (active)
same,EC50,[6],8.46 µM (active)
COc1ccc2sc(N(CCCN(C)C)C(=O)c3ccc(S(=O)(=O)N(C)Cc4ccccc4)cc3)nc2c1,EC50,[4],0.185 µM (active)
same,EC50,[6],> 60 µM (not active)
same,IC50,[16],> 20 µM (inactive)
O=C(NC1CCCCC1)c1nc(O)c2nnn(Cc3ccccc3Cl)c2n1,CC50,[17],19.9 µM (active)
same,CC50,[18],> 40 µM (active)
same,IC50,[19],29.9 µM (active)
O=C1N[C@H]2CC=C[C@H]2Nc2ccccc21,IC50,[3],44.8 µM (inactive)
CSc1ccccc1OCc1cc(C(=O)N2CCN(C)C(c3ccccc3)C2)no1 (stereo unspecified),AC50,[7],1.64 µM (active)
CCCN1Cc2cccc(C(N)=O)c2C1=O,IC50,[3],> 79 µM (inactive)
COc1ccc(C(CCN2CCCC(C)C2)c2c(OC)cc(OC)c3c(-c4ccccc4)cc(=O)oc23)cc1 (stereo unspecified),IC50,[16],> 20 µM (inactive)
O=C(CSc1nnc(-c2cccnc2)o1)c1cc2ccccc2oc1=O,IC50,[3],> 79 µM (inactive)
CC(C)N1CCc2c(sc(NC(=O)c3ccc(S(=O)(=O)N4CCc5ccccc54)cc3)c2C(N)=O)C1,IC50,[16],> 20 µM (inactive)
O=C(Cn1[nH]c(=O)c2ccccc2c1=O)OCC(=O)N(Cc1ccccc1)Cc1ccccc1,IC50,[3],36 µM (inactive)
CCN(CC)c1ccc(CNCc2cccs2)cc1,AC50,[5],0.742 µM (active)
CCCCc1c(C)nc(N)nc1O,EC50,[1],> 350 µM (not active)
same,EC50,[2],> 350 µM (not active)
COc1cc(-c2cc(NC(C)=O)c3ncc(-c4ccc(C(C)=O)cc4)n3c2)cc(OC)c1OC,IC50,[3],> 79 µM (inactive)
CC1Oc2cc3oc4c(O)c(O)ccc4c(=O)c3c(O)c2C1(C)C (stereo unspecified) [TOXYLOXANTHONE C],AC50,[7],38 µM (active)
same,EC50,[10],> 150 µM (not active)
same,EC50,[11],5.91 µM (active)
same,EC50,[12],8.07 µM (active)
same,EC50,[8],> 150 µM (inactive)
same,EC50,[9],> 38 µM (not active)
O=C(N/N=C\c1cccc(Cl)c1)c1ccc(Cn2cccn2)o1,AC50,[5],0.641 µM (active)
c1ccc(Nc2nc(-c3ccccn3)cs2)cc1,CC50,[17],> 20 µM (active)
same,IC50,[19],0.19 µM (active)
O=C1NC(=O)N(Cc2ccccc2Cl)C(=O)/C1=C/c1ccc[nH]1,CC50,[17],9.48 µM (active)
same,CC50,[18],9.35 µM (active)
same,IC50,[19],1.04 µM (active)
CN(C)CCNc1ccc(-c2nnc(O)c3ccccc23)cc1[N+](=O)[O-],IC50,[3],> 79 µM (inactive)
COc1cc(OC)c(-c2nn3c(-c4ccco4)nnc3s2)cc1OC,IC50,[3],> 79 µM (inactive)
O=S(=O)(NC1CC2CCC1C2)c1ccc(Br)cc1 (stereo unspecified),AC50,[7],1.6 µM (active)
COc1ccc(N2C(=O)CSC2c2ccncc2)cc1 (stereo unspecified),AC50,[5],0.124 µM (active)
same,EC50,[20],> 260 µM (inactive)
CNCC(O)c1cc(F)c(OCc2ccccc2)c(OCc2ccccc2)c1F (stereo unspecified),IC50,[16],> 20 µM (inactive)
C/C(=N\NC(=O)c1ccncc1)c1ccc(N(C)C)cc1,AC50,[5],5.01 µM (active)
CC(=O)Nc1cccc(-c2cc(NC(C)=O)c3ncc(-c4ccccc4)n3c2)c1,IC50,[3],> 79 µM (inactive)
O=C1OC(c2ccccc2)(c2ccc3cc(O)ccc3c2)c2ccccc21 (stereo unspecified),AC50,[7],8.23 µM (active)
C[C@H](CO)N1C[C@H](C)[C@@H](CN(C)S(=O)(=O)c2ccccc2)Oc2ccc(NC(=O)Nc3ccccc3)cc2C1=O,IC50,[3],13.3 µM (active)
Cc1occc1-c1nnc(-c2cc([N+](=O)[O-])cc([N+](=O)[O-])c2)o1,AC50,[7],2.74 µM (active)
same,EC50,[4],0.277 µM (active)
same,IC50,[19],1.37 µM (active)
same,EC50,[6],> 60 µM (not active)
COc1cccc(CNc2nc(-c3cccnc3)nc3ccccc23)c1,IC50,[21],> 47.1 µM (inactive)
same,EC50,[22],> 53 µM (inactive)
same,IC50,[16],> 20 µM (inactive)
O=C(NCN1CCN(c2ccccc2)CC1)c1cnccn1,AC50,[5],4.03 µM (active)
COc1cccc(N2CCN(CC(=O)NCc3ccccc3)CC2)c1,AC50,[5],1.97 µM (active)
Cc1cc(NC(=O)CCN2C(=O)/C(=C\c3ccccc3)SC2=S)no1,EC50,[1],> 350 µM (not active)
same,EC50,[2],> 350 µM (not active)
